In test [1] the test system is Human PBMCs. Put plainly: Cytokine production in PBMCs: human IFN-α by ELISA. In kind it is cell-based. Further details: key: ″+″ means that there was production of IFNa or IL-6 on PBMC; ″−″means that noproduction of IFNa or IL-6 on PBMC was detected. To be noted: compounds tested at concentration of 10 uM; human PBMCs cultured 20-22 hours; supernatant ELISA. How it is done: (§1) The compound functionality was tested for some of the compounds prepared by stimulation and determination of cytokine production in PBMCs.
(§2) Human PBMCs were prepared from buffy coat obtained from healthy volunteer donor by Ficoll centrifugation and were adjusted to the final cell concentration to 1×10^6 cells/mL.
(§3) For evaluation of compound activities, 1×10^5 PBMCs were plated in a 96-well plate in 100 μl of RPMI 1640 complete medium (cat no. 31800-022, GIBCO by Life Technologies, Grand Island, NY, USA) supplemented with 10% fetal bovine serum, the tested compound was first dissolved in DMSO and further diluted in PBS and RPMI 1640 medium to the final concentration of […] (corresponding to 6.28 μg/mL), then 3-fold serially dilution was made in a 96-well round-bottom plate. 100 μl diluted compound was added to the same volume of 1×10^5 PBMCs plate and cultured for 20-22 hours at 37° C. in a humidified atmosphere of 5% CO2. The supernatant was collected for human IFN-α, IL12(p70) and IL-6 analysis by ELISA assay according to the manufacturer's instructions (Mabtech AB, Sweden). Resiquimod was used as a positive control.

Test [2] relates to Human PBMCs. Put plainly: Cytokine production in PBMCs: human IL-6 by ELISA. In kind it is cell-based. Further details: key: ″+″ means that there was production of IFNa or IL-6 on PBMC; ″−″means that noproduction of IFNa or IL-6 on PBMC was detected. To be noted: compounds tested at concentration of 10 uM; human PBMCs cultured 20-22 hours; supernatant ELISA. The procedure:
as §1, §2, §3
(In an ELISA, binding on a coated surface is turned into a signal by an enzyme label.)

From patent publication US11834448B2, “2-amino-quinoline derivatives” (BIRDIE BIOPHARMACEUTICALS, INC., priority 2017, dated 2023) come the findings set out here.

Take `CCOCc1nc2c(N)nc3cccc4c3c2n1CCO4` [Compound 39, 2-(ethoxymethyl)-3,4-dihydro-5-oxa-1,2a,9-triazanaphtho[2,1,8-cde]azulen-10-amine]: in the test on Human PBMCs [1], the “Production of IFNa on PBMC” value is “+”. In addition, the “Production of IL−6 on PBMC” value in the test on Human PBMCs [2] is given as “+”.

For the compound `CCOCc1nc2c(N)nc3cccc(OCCCCNC(C)=O)c3c2n1C` [Compound 24, N-(4-((4-amino-2-(ethoxymethyl)-1-methyl-1H-imidazo[4,5-c]quinolin-9-yl)oxy)butyl)acetamide], in the test on Human PBMCs [1], the “Production of IFNa on PBMC” value was “+”. The “Production of IL−6 on PBMC” value in the test with Human PBMCs [2] was “+”. With `CCOCc1nc2c(N)nc3cccc(OC(C)C)c3c2n1C` [Compound 37, 2-(ethoxymethyl)-9-isopropoxy-1-methyl-1H-imidazo[4,5-c]quinolin-4-amine], the “Production of IFNa on PBMC” value in the test on Human PBMCs [1] is listed as “+”. Besides, the “Production of IL−6 on PBMC” value with Human PBMCs [2] is recorded as “+”.

`CCOCc1nc2c(N)nc3cccc(OCC(C)C)c3c2n1C` [Compound 18, 2-(ethoxymethyl)-9-isobutoxy-1-methyl-1H-imidazo[4,5-c]quinolin-4-amine]: the “Production of IFNa on PBMC” value in the test with Human PBMCs [1] is listed as “+”. Besides, in the test with Human PBMCs [2], the “Production of IL−6 on PBMC” value was “+”. In the case of `CCOCc1nc2c(N)nc3cccc4c3c2n1C[C@@](C)(O)CO4` [Compound 43, (R)-2-amino-12-(ethoxymethyl)-6-methyl-6,7-dihydro-5H-3,4-(azenometheno)[1,5]oxazocino[4,3,2-de]quinolin-6-ol], the “Production of IL−6 on PBMC” value in the test on Human PBMCs [2] is recorded as “−”.

Take `CCOCc1nc2c(N)nc3cccc(OC)c3c2n1CC(C)(C)O` [Compound 1, 1-(4-amino-2-(ethoxymethyl)-9-methoxy-1H-imidazo[4,5-c]quinolin-1-yl)-2-methylpropan-2-ol]: the “Production of IFNa on PBMC” value in the test on Human PBMCs [1] is “+”. Besides, in the test on Human PBMCs [2], the “Production of IL−6 on PBMC” value is listed as “+”. `CCOCc1nc2c(N)nc3cccc(OC4CCOC4)c3c2n1C` (stereo not shown) [Compound 27, 2-(ethoxymethyl)-1-methyl-9-((tetrahydrofuran-3-yl)oxy)-1H-imidazo[4,5-c]quinolin-4-amine]: the “Production of IFNa on PBMC” value in the test with Human PBMCs [1] is reported as “+”. The “Production of IL−6 on PBMC” value with Human PBMCs [2] is given as “+”. In the case of `COCCc1nc2c(N)nc3cccc(OCCC(C)(C)O)c3c2[nH]1` [Compound 9, 4-((4-amino-2-(2-methoxyethyl)-1H-imidazo[4,5-c]quinolin-9-yl)oxy)-2-methylbutan-2-ol], in the test on Human PBMCs [2], the “Production of IL−6 on PBMC” value is listed as “+”. Turning to `CCOCc1nc2c(N)nc3cccc(OC)c3c2n1CCC(C)(C)O` [Compound 14, 4-(4-amino-2-(ethoxymethyl)-9-methoxy-1H-imidazo[4,5-c]quinolin-1-yl)-2-methylbutan-2-ol], the “Production of IFNa on PBMC” value with Human PBMCs [1] was “+”. The “Production of IL−6 on PBMC” value in the test with Human PBMCs [2] is reported as “+”. Turning to `CCOCc1nc2c(N)nc3cccc(OCCC(C)C)c3c2n1C` [Compound 17, 2-(ethoxymethyl)-9-(isopentyloxy)-1-methyl-1H-imidazo[4,5-c]quinolin-4-amine], the “Production of IFNa on PBMC” value in the test with Human PBMCs [1] was “+”. Besides, the “Production of IL−6 on PBMC” value in the test with Human PBMCs [2] was “+”. `CCOCc1nc2c(N)nc3cccc(OC4CCNC4)c3c2n1C` (stereo not shown) [Compound 28, 2-(ethoxymethyl)-1-methyl-9-(pyrrolidin-3-yloxy)-1H-imidazo[4,5-c]quinolin-4-amine]: the “Production of IFNa on PBMC” value in the test with Human PBMCs [1] is given as “+”. In the test with Human PBMCs [2], the “Production of IL−6 on PBMC” value is listed as “+”. With `CCOCc1nc2c(N)nc3cccc(OCCOCCNS(C)(=O)=O)c3c2n1C` [Compound 20, N-(2-(2-((4-amino-2-(ethoxymethyl)-1-methyl-1H-imidazo[4,5-c]quinolin-9-yl)oxy)ethoxy)ethyl)-methanesulfonamide], the “Production of IFNa on PBMC” value in the test on Human PBMCs [1] is listed as “+”. Also, in the test on Human PBMCs [2], the “Production of IL−6 on PBMC” value is “+”. With `CCOCc1nc2c(N)nc3cccc4c3c2n1C[C@@H](O)CO4` [Compound 44, (R)-2-amino-12-(ethoxymethyl)-6,7-dihydro-5H-3,4-(azenometheno)[1,5]oxazocino[4,3,2-de]quinolin-6-ol], the “Production of IL−6 on PBMC” value with Human PBMCs [2] was “−”. The same measure, in the same setting: the value for `CCOCc1nc2c(N)nc3cccc(OCCC(C)O)c3c2[nH]1` (stereo not shown) [Compound 7, 4-((4-amino-2-(ethoxymethyl)-1H-imidazo[4,5-c]quinolin-9-yl)oxy)butan-2-ol] was “+”. On to `CCOCc1nc2c(N)nc3cccc(OC)c3c2n1CC(C)C` [Compound 2, 2-(ethoxymethyl)-1-isobutyl-9-methoxy-1H-imidazo[4,5-c]quinolin-4-amine], for which the “Production of IFNa on PBMC” value with Human PBMCs [1] is reported as “+”. In the test with Human PBMCs [2], the “Production of IL−6 on PBMC” value was “+”. In the case of `CCOCc1nc2c(N)nc3cccc(OC)c3c2n1CCOC(C)C` [Compound 13, 2-(ethoxymethyl)-1-(2-isopropoxyethyl)-9-methoxy-1H-imidazo[4,5-c]quinolin-4-amine], the “Production of IFNa on PBMC” value in the test with Human PBMCs [1] was “+”. Moreover, the “Production of IL−6 on PBMC” value in the test on Human PBMCs [2] was “+”. For the compound `CC(C)CCOc1cccc2nc(N)c3nn(CCC(C)C)cc3c12` [Compound 32, 2-isopentyl-9-(isopentyloxy)-2H-pyrazolo[3,4-c]quinolin-4-amine], in the test with Human PBMCs [1], the “Production of IFNa on PBMC” value is “−”. Moreover, the “Production of IL−6 on PBMC” value with Human PBMCs [2] is given as “−”.

Turning to `CCCCCCCCCCCCCCCCCC(=O)NCCCCOc1cccc2nc(N)c3nc(COCC)n(C)c3c12` [Compound 25, N-(4-((4-amino-2-(ethoxymethyl)-1-methyl-1H-imidazo[4,5-c]quinolin-9-yl)oxy)butyl)-stearamide], in the test on Human PBMCs [1], the “Production of IFNa on PBMC” value is reported as “+”. In addition, in the test on Human PBMCs [2], the “Production of IL−6 on PBMC” value is “+”.

On to `CCOCc1nc2c(N)nc3cccc(OCCCN)c3c2n1C` [Compound 36, 9-(3-aminopropoxy)-2-(ethoxymethyl)-1-methyl-1H-imidazo[4,5-c]quinolin-4-amine], for which the “Production of IFNa on PBMC” value in the test with Human PBMCs [1] is “+”. Moreover, the “Production of IL−6 on PBMC” value with Human PBMCs [2] was “+”.

As to `CCOCc1nc2c(N)nc3cccc4c3c2n1[C@@H](C(C)(C)O)CO4` [Compound 40, (R)-2-(10-amino-2-(ethoxymethyl)-3,4-dihydro-5-oxa-1,2a,9-triazanaphtho[2,1,8-cde]azulen-3-yl)propan-2-ol], the “Production of IL−6 on PBMC” value with Human PBMCs [2] is on record as “−”. `CCOCc1nc2c(N)nc3cccc(OCCC(C)(C)O)c3c2n1C` [Compound 10, 4-((4-amino-2-(ethoxymethyl)-1-methyl-1H-imidazo[4,5-c]quinolin-9-yl)oxy)-2-methylbutan-2-ol]: the “Production of IL−6 on PBMC” value in the test with Human PBMCs [2] is listed as “+”.

On to `CCOCc1nc2c(N)nc3cccc(OCCC(C)C)c3c2[nH]1` [Compound 6, 2-(ethoxymethyl)-9-(isopentyloxy)-1H-imidazo[4,5-c]quinolin-4-amine], for which, in the test with Human PBMCs [2], the “Production of IL−6 on PBMC” value is listed as “+”. Still for that read-out and setting: under `CCOCc1nc2c(N)nc3cccc4c3c2n1C[C@H](O)CO4` [Compound 45, (S)-2-amino-12-(ethoxymethyl)-6,7-dihydro-5H-3,4-(azenometheno)[1,5]oxazocino-[4,3,2-de]quinolin-6-ol] stands “+”. For `CCOCc1nc2c(N)nc3cccc4c3c2n1[C@H](C(C)(C)O)CO4` [Compound 41, (S)-2-(10-amino-2-(ethoxymethyl)-3,4-dihydro-5-oxa-1,2a,9-triazanaphtho[2,1,8-cde]azulen-3-yl)propan-2-ol], in the test with Human PBMCs [2], the “Production of IL−6 on PBMC” value is given as “+”. The same measure, in the same setting: the value for `CCOCc1nc2c(N)nc3cccc4c3c2n1CC(=O)CO4` [Compound 46, 2-amino-12-(ethoxymethyl)-5H-3,4-(azenometheno)[1,5]oxazocino[4,3,2-de]quinolin-6(7H)-one] was “+”.
